Experimental data as given in patent publication US20060088533A1, “Methods of treating inflammatory bowel disease” (priority 2004, published 2006).

What was measured:
EGFR = molecular target: T1, EGFR (Homo sapiens, UniProt P00533); experiment: Western blot of EGFR phosphorylation in colonocytes exposed to C. difficile toxin; type: cell-based; settings: for TxB's activation of EGFR: colonocytes preincubated with BAPTA 20uM or GF109203X 1uM before TxB addition
T1 construct: endogenous in cells; host or cells: NCM460 (nontransformed human colonic epithelial cells); HT29 (colonic adenocarcinoma cells)

ERK1/2 = experiment: Western blot of ERK1/2 phosphorylation in colonocytes exposed to C. difficile toxin or LPA; type: cell-based, human; settings: for TxB's activation of ERK: colonocytes preincubated with BAPTA 20uM or GF109203X 1uM before TxB addition
Description: NCM460 or HT29 cells were seeded in 12 well plates and grown to 70%-100% confluency. Cells were serum starved overnight prior to experiments. TxB or TxA were added in serum free medium at the indicated concentrations for varying lengths of time. Cells were then washed three times with ice cold phosphate buffered saline (PBS) and lysed in 1×SDS sample buffer (Cell Signaling Technology, Beverly, Mass.). Equal amounts of cell lysates were loaded onto 10% SDS-PAGE gels and transferred to nitrocellulose membranes (Bio-Rad Laboratories, Hercules, Calif.). Blots were probed with each primary antibody overnight at 4° C. and then with species-specific secondary antibodies coupled with horseradish peroxidase for 1 hour at room temperature. Peroxidase activity was detected by SuperSignal Chemiluminescent Substrate (Pierce, Rockford, Ill.). Signals were analyzed and quantified as described (Na, X. et al., EMBO J., 22:4249-4259 (2003)) and results were expressed as mean ±SD.

TGF-α = TGF-α secretion ELISA; type: cell-based, human; settings: NCM460 cells; GM6001 25 μM 30 minutes prior to TxB for 1 or 3 hours; versus DMSO
Description: TGF-α secretion from colonocyte cultures was measured by enzyme-linked immunosorbent assay. Briefly, 96-well Nunc-immuno plates (Fisher Scientific) were coated with 0.4 ug/ml of TGF-α antibody diluted in PBS overnight at room temperature. Wells were blocked with PBS containing 1% BSA for 1 hour after washing 3 times with PBST (PBS with 0.1% Twin-20). Fifty μl of conditioned media or serial dilutions of TGF-α in PBS containing 1% BSA were then added to each well. After 2 hours, wells were washed and incubated with 0.3 μg/ml biotin-conjugated anti-TGF-α antibody for 1 hour. Streptavidin-horseradish peroxidase (1:1500) from Amersham Bioscience (Amersham, UK) was added to the wells. Peroxidase activity was measured by TMB Peroxidase Substrate Reagents (KPL Inc, Gaithersburg, Md.).

IL-8 promoter = experiment: IL-8 luciferase promoter assay; type: cell-based, human; settings: NCM460 cells; inhibitor 30 minutes, then TxB 20 nM 16 hours; versus DMSO
Description: A 1521-bp fragment (nucleotides −1481 to +40) of the promoter region of the human IL-8 gene was used to monitor transcription of IL-8 gene as previously described (Keates, S. et al., J. Biol. Chem., 276:48127-48134 (2001)). Cells were grown on 24-well plates and transiently transfected with the IL-8 promoter luciferase construct and a control luciferase construct pRL-TK (Promega Corp., Madison, Wis.) using Superfect (Qiagen Inc., Chatsworth, Calif.). Transfected cells were serum starved overnight and then exposed to TxB and/or pharmacological inhibitors at the indicated times. Cells were lysed, and firefly and renilla luciferase activities in cell extracts were measured using Dual-Luciferase Reporter Assay System (Promega Corp., Madison, Wis.). The relative luciferase activity was calculated by normalizing IL-8 promoter-driven firefly luciferase activity to control Renilla luciferase activity. Data from all experiments are represented as the relative luciferase activity (mean ±SD) from at least three independent sets of experiments, each with triplicate measurements.

IL-8 [1] = settings: cited from earlier work
Rho = experiment: C3 exoenzyme-catalyzed ADP-ribosylation assay (TxB-induced Rho glucosylation); type: cell-based, human; settings: NCM460 cells; EGFR antibody 20 μg/ml or AG1478 0.5 μM 30 minutes, then TxB 20 nM 1 hour
NCM460 cells = experiment: Cell rounding assay; type: cell-based, human; settings: EGFR antibody 20 μg/ml or AG1478 0.5 μM 30 minutes, then TxB 20 nM 1 hour
Description: NCM460 cells were seeded on glass cover slides overnight. […] Cells were then fixed with formaldehyde for 10 minutes and rinsed three times in PBS. Percentage of cell rounding was quantitated by phase-contrast microscopy.

IL-8 [2] = settings: cited from earlier work; remark: listed apart in the source

T1 sequence (P00533 25-1210): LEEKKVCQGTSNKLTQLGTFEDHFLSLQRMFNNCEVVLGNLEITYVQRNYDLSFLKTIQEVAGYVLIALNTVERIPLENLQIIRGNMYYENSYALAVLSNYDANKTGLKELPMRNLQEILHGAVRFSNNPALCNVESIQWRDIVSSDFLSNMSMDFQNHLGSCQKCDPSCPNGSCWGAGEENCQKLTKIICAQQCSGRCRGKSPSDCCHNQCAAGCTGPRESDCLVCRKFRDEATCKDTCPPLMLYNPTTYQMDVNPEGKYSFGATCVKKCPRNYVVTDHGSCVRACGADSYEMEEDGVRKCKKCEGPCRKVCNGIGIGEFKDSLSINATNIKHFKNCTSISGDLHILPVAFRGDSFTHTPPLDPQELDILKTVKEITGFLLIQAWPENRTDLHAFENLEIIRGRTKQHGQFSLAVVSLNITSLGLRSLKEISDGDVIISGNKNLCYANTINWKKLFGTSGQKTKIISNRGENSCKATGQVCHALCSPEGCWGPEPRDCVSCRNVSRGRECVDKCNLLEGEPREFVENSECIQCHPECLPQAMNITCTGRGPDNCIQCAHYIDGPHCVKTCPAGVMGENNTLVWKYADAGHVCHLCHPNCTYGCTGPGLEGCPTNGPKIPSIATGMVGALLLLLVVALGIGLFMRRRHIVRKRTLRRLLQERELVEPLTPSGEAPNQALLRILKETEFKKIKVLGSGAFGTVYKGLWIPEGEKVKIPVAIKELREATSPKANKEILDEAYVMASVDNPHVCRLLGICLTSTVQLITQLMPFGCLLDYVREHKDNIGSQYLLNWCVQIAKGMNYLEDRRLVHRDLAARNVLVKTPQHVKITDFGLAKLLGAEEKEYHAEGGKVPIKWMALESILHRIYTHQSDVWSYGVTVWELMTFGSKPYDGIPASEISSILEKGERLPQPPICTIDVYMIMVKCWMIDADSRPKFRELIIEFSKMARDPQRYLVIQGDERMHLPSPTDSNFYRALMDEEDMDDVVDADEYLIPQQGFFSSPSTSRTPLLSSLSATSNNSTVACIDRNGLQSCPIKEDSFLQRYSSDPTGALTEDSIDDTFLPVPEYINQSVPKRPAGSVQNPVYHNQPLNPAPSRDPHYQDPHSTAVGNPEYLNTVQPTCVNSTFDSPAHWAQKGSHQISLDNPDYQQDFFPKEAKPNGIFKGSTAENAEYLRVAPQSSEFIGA

## CNC(=O)[C@H](Cc1c[nH]c2ccccc12)NC(=O)[C@@H](CC(=O)NO)CC(C)C [GM6001]
EGFR; NCM460 cells, BB94 or GM6001 25 μM 30 minutes prior to TxB 20 nM, versus DMSO at 60 minutes
  Activation of the EGFR induced by TxB: significantly inhibited
ERK1/2; NCM460 cells, BB94 3 mg/ml or GM6001 25 μM 30 minutes prior to TxB 20 nM, versus DMSO at 60 minutes
  Activation of ERK1/2 induced by TxB: significantly inhibited
TGF-α
  TxB-induced TGF-α secretion: significantly inhibited

## COc1cc2ncnc(Nc3cccc(Cl)c3)c2cc1OC [AG1478, tyrphostin AG1478]
IL-8 promoter
  TxB-mediated IL-8 expression: significantly inhibited
ERK1/2; NCM460 cells, AG1478 0.2-1.0 uM for 30 minutes, then TxB 20 nM 60 minutes
  Activation of ERK1/2 by TxB: completely blocked
IL-8 [1]
  IL-8 production mediated by H. pylori: significantly reduced
Rho
  TxB-induced Rho glucosylation: neither an EGFR antibody, nor a specific EGFR inhibitor, AG1478, altered
NCM460 cells
  TxB-induced cell rounding: neither an EGFR antibody, nor a specific EGFR inhibitor, AG1478, altered
IL-8 [2]
  IL-8 production mediated by neurotensin: significantly reduced

## CN(C)CCCn1cc(C2=C(c3c[nH]c4ccccc34)C(=O)NC2=O)c2ccccc21 [GF109203X]
EGFR
  TxB's activation of EGFR: decreased
ERK1/2
  TxB's activation of ERK: decreased

## O=C(O)CN(CC(=O)O)c1ccccc1OCCOc1ccccc1N(CC(=O)O)CC(=O)O [BAPTA]
EGFR
  TxB's activation of EGFR: decreased
ERK1/2
  TxB's activation of ERK: decreased

## COc1cccc(-c2cc(=O)c3ccccc3o2)c1N [PD98059]
IL-8 promoter
  TxB-mediated IL-8 expression: significantly inhibited
